# Target: hVR1 (Homo sapiens, UniProt Q8NER1)
# Experiment: Calcium imaging assay (Fura2) of VR1 antagonists, proton stimulation
# Format: cell-based
# Conditions: HEK 293 cells expressing hVR1; for IC50: calcium ion influx induced by proton stimulation; for % Inhibition @ 1 μM: calcium ion influx induced by proton stimulation (pH 5.7)
# Description: VR1 protein is a heat-gated cation channel that exchanges about 10 calcium ions for every sodium ion resulting in neuronal membrane depolarization and elevated intracellular calcium ion levels. Therefore the functional activity of compounds at the VR1 receptor may be determined by measuring changes in intracellular calcium levels in 293 cells expressing capsaicin-insensitive VR1 receptor variants. A dual wavelength ratiometric dye, Fura2, was used as an indicator of relative levels of calcium ions in a 96 well format using a bench top scanning fluorometer with integrated fluidics and temperature control (Flex Station, Molecular Devices).
# A dual wavelength ratiometric dye, Fura2, was used as an indicator of relative levels of [Ca2+] in a 96 well format using a bench top scanning fluorometer with integrated fluidics and temperature control (Flex Station, Molecular Devices).
# HEK 293 cells expressing hVR1 were grown on PDL coated 96-well black-walled plates, in the presence of a DMEM medium containing 5% Penstrep, 5% Glutamax, 200 ug/mL Hygromycin, 5 μg/mL Blasticide and 10% heat inactivated FBS. Prior to assay, the cells were loaded with 5 μg/mL Fura2 in normal saline solution at 37° C. for 40 minutes. Cells were then washed with normal saline to remove the dye.
# The assay consists of two stages; a pre-treatment phase followed by a treatment phase. In the pretreatment phase, 50 μl of a compound solution was added to the cells. Immediately following, 50 μl of the test compound in the presence of agonist (a saline solution plus 10 mM citric acid bufferd to pH 5.7 with HCl) was added. Fura2 was excited at […] to indicate relative calcium concentration. Changes in wavelength measurements were made throughout the course of the experiment in 4 second intervals over a period of 3 minutes. The fluorescence ratio from the excitations at […] was recorded for analysis. Responses were measured as peak fluorescence ratio after compound-agonist addition minus baseline fluorescence ratio prior to treatment and were calculated for each concentration tested using the SoftMaxPro software. Data was expressed as percentage inhibition calculated as follows: […]
# A dose response curve was then determined, from which the ID50 of each compound was calculated.
# Sequence of hVR1 (Q8NER1 whole entry): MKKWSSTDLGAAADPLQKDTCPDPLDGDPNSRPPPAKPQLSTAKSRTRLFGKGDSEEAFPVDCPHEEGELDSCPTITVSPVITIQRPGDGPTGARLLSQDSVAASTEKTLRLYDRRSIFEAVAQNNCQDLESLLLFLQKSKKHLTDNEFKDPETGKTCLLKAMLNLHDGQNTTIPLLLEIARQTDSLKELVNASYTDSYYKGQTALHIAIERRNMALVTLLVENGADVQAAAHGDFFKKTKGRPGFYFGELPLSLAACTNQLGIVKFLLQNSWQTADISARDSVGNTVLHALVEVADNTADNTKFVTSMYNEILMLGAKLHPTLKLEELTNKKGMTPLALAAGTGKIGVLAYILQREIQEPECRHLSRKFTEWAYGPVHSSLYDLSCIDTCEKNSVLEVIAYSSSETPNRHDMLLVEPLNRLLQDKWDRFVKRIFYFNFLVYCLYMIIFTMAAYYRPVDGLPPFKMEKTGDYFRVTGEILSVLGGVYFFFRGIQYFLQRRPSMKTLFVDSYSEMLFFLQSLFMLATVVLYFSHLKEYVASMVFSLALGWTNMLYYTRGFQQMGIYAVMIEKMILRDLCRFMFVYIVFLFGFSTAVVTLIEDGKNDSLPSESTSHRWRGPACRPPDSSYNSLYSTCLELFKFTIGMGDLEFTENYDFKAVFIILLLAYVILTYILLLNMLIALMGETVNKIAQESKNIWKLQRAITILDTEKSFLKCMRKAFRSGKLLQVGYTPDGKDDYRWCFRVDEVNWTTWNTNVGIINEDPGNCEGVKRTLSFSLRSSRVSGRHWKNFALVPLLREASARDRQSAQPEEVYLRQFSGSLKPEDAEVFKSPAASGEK
SMILES,IC50,% Inhibition @ 1 μM
"CSc1nc2c(c(Nc3ccc(C(F)(F)F)cc3)n1)CCN(c1ncccc1Cl)C2 [Example 24, [7-(3-Chloro-pyridin-2-yl)-2-methylsulfanyl-5,6,7,8-tetrahydro-pyrido[3,4-d]pyrimidin-4-yl]-(4-trifluoromethyl-phenyl)-amine]",101 to 500 nM,
"COc1nc2c(c(Nc3ccc(C(F)(F)F)cc3)n1)CCN(c1ncccc1Cl)C2 [Example 27, 7-(3-Chloropyridin-2-yl)-N-(4-(trifluoromethyl)phenyl)-5,6,7,8-tetrahydro-2-methoxypyrido[3,4-d]pyrimidin-4-amine]",101 to 500 nM,
"Cc1cccc(N2CCc3c(ncnc3Nc3ccc4c(c3)OCCO4)C2)c1 [Example 36, (2,3-Dihydro-benzo[1,4]dioxin-6-yl)-(7-m-tolyl-5,6,7,8-tetrahydro-pyrido[3,4-d]pyrimidin-4-yl)-amine]",,++ (compound exhibited 26-50% inhibition of calcium ion influx induced by proton stimulation)
"c1ccc(CN2CCc3c(ncnc3Nc3cnc4ccccc4c3)C2)cc1 [Example 38, 7-Benzyl-5,6,7,8-tetrahydro-N-(quinolin-3-yl)pyrido[3,4-d]pyrimidin-4-amine]",101 to 500 nM,
"Clc1ccc(CCNc2ncnc3c2CCN(c2ncccc2Cl)C3)cc1 [Example 40, N-(4-Chlorophenethyl)-7-(3-chloropyridin-2-yl)-5,6,7,8-tetrahydropyrido[3,4-d]pyrimidin-4-amine]",> 1000 nM,+++ (compound exhibited 51-75% inhibition of calcium ion influx induced by proton stimulation)
"Clc1ccc(CNc2ncnc3c2CCN(c2ncccc2Cl)C3)cc1 [Example 41, N-(4-Chlorobenzyl)-7-(3-chloropyridin-2-yl)-5,6,7,8-tetrahydropyrido[3,4-d]pyrimidin-4-amine]",101 to 500 nM,++ (compound exhibited 26-50% inhibition of calcium ion influx induced by proton stimulation)
"Clc1ccc(Nc2ncnc3c2CCN(c2ncccc2Cl)C3)cc1Cl [Example 42, N-(3,4-Dichlorophenyl)-7-(3-chloropyridin-2-yl)-5,6,7,8-tetrahydropyrido[3,4-d]pyrimidin-4-amine]",,++ (compound exhibited 26-50% inhibition of calcium ion influx induced by proton stimulation)
"CC(C)(C)c1ccc(Nc2ncnc3c2CCN(c2ncccc2Cl)C3)cn1 [Example 49, N-(6-tert-Butylpyridin-3-yl)-7-(3-chloropyridin-2-yl)-5,6,7,8-tetrahydropyrido[3,4-d]pyrimidin-4-amine]",,++++ (compound exhibited 76% or greater inhibition of calcium ion influx induced by proton stimulation)
"FC(F)(F)c1cccc(CCNc2ncnc3c2CCN(c2ncccc2Cl)C3)c1 [Example 50, N-(3-(Trifluoromethyl)phenethyl)-7-(3-chloropyridin-2-yl)-5,6,7,8-tetrahydropyrido[3,4-d]pyrimidin-4-amine]",,+ (compound exhibited 0-25% inhibition of calcium ion influx induced by proton stimulation)
"Clc1cccnc1N1CCc2c(ncnc2NCCCc2ccccc2)C1 [Example 51, 7-(3-Chloropyridin-2-yl)-5,6,7,8-tetrahydro-N-(3-phenylpropyl)pyrido[3,4-d]pyrimidin-4-amine]",,+ (compound exhibited 0-25% inhibition of calcium ion influx induced by proton stimulation)
"Clc1cccnc1N1CCc2c(ncnc2NCCOc2ccccc2)C1 [Example 52, 7-(3-Chloropyridin-2-yl)-5,6,7,8-tetrahydro-N-(2-phenoxyethyl)pyrido[3,4-d]pyrimidin-4-amine]",,+ (compound exhibited 0-25% inhibition of calcium ion influx induced by proton stimulation)
"CC1(C)CCNc2cc(Nc3ncnc4c3CCN(c3ncccc3Cl)C4)ccc21 [Example 59, 7-(3-chloropyridin-2-yl)-5,6,7,8-tetrahydro-N-(1,2,3,4-tetrahydro-4,4-dimethylquinolin-7-yl)pyrido[3,4-d]pyrimidin-4-amine]",101 to 500 nM,

# The next lines start with results.
IC50,SMILES,% Inhibition @ 1 μM
> 1000 nM,"FC(F)(F)c1ccc(Nc2ncnc3c2CCN(c2ccccc2)C3)cc1 [Example 44, 7-(Phenyl)-N-(4-(trifluoromethyl)phenyl)-5,6,7,8-tetrahydropyrido[3,4-d]pyrimidin-4-amine]",+ (compound exhibited 0-25% inhibition of calcium ion influx induced by proton stimulation)
501 to 1000 nM,"Cc1ccc(N2CCc3c(ncnc3Nc3ccc(C(F)(F)F)cc3)C2)cc1 [Example 47, 7-(p-Tolyl)-N-(4-(trifluoromethyl)phenyl)-5,6,7,8-tetrahydropyrido[3,4-d]pyrimidin-4-amine]",++ (compound exhibited 26-50% inhibition of calcium ion influx induced by proton stimulation)
< 100 nM,"CC(C)(C#N)c1ccc(Nc2ncnc3c2CCN(c2ncccc2Cl)C3)cc1 [Example 56, 2-(4-(7-(3-Chloropyridin-2-yl)-5,6,7,8-tetrahydropyrido[3,4-d]pyrimidin-4-ylamino)phenyl)-2-methylpropanenitrile]",++++ (compound exhibited 76% or greater inhibition of calcium ion influx induced by proton stimulation)
> 1000 nM,"Oc1nc2c(c(Nc3ccc(C(F)(F)F)cc3)n1)CCN(c1ncccc1Cl)C2 [Example 57, 4-(4-(Trifluoromethyl)phenylamino)-7-(3-chloropyridin-2-yl)-5,6,7,8-tetrahydropyrido[3,4-d]pyrimidin-2-ol]",+ (compound exhibited 0-25% inhibition of calcium ion influx induced by proton stimulation)
> 1000 nM,"CC1(C)C(=O)NC(=O)c2cc(Nc3ncnc4c3CCN(c3ncccc3Cl)C4)ccc21 [Example 58, 7-(7-(3-Chloropyridin-2-yl)-5,6,7,8-tetrahydropyrido[3,4-d]pyrimidin-4-ylamino)-4,4-dimethylisoquinoline-1,3(2H,4H)-dione]",
< 100 nM,"CN1CCC(C)(C)c2ccc(Nc3ncnc4c3CCN(c3ncccc3Cl)C4)cc21 [Example 60, 7-(3-Chloropyridin-2-yl)-5,6,7,8-tetrahydro-N-(1,2,3,4-tetrahydro-1,4,4-trimethylquinolin-7-yl)pyrido[3,4-d]pyrimidin-4-amine]",
> 1000 nM,CC(=O)N1Cc2cc(Nc3ncnc4c3CCN(c3ncccc3Cl)C4)ccc2C(C)(C)C1 [Example 61],
> 1000 nM,"CC1(C)CNCc2cc(Nc3ncnc4c3CCN(c3ncccc3Cl)C4)ccc21 [Example 62, 7-(3-chloropyridin-2-yl)-5,6,7,8-tetrahydro-N-(1,2,3,4-tetrahydro-4,4-dimethylisoquinolin-7-yl)pyrido[3,4-d]pyrimidin-4-amine]",
101 to 500 nM,"CSc1nc2c(c(Nc3ccc(C(F)(F)F)cc3)n1)CCN(c1ncccc1S(C)(=O)=O)C2 [Example 63, N-(4-(Trifluoromethyl)phenyl)-5,6,7,8-tetrahydro-7-(3-(methylsulfonyl)pyridin-2-yl)-2-(methylthio)pyrido[3,4-d]pyrimidin-4-amine]",+++ (compound exhibited 51-75% inhibition of calcium ion influx induced by proton stimulation)
101 to 500 nM,"CN1CCOc2cc(Nc3ncnc4c3CCN(c3ncccc3Cl)C4)ccc21 [Example 65, 7-(3-Chloropyridin-2-yl)-5,6,7,8-tetrahydro-N-(3,4-dihydro-4-methyl-2H-benzo[b][1,4]oxazin-7-yl)pyrido[3,4-d]pyrimidin-4-amine]",+++ (compound exhibited 51-75% inhibition of calcium ion influx induced by proton stimulation)
< 100 nM,"COC(=O)COc1nc2c(c(Nc3ccc(C(F)(F)F)cc3)n1)CCN(c1ncccc1Cl)C2 [Example 66, Methyl 2-(4-(4-(trifluoromethyl)phenylamino)-7-(3-chloropyridin-2-yl)-5,6,7,8-tetrahydropyrido[3,4-d]pyrimidin-2-yloxy)acetate]",++++ (compound exhibited 76% or greater inhibition of calcium ion influx induced by proton stimulation)
> 1000 nM,"CC1(C)C(=O)Nc2cc(Nc3ncnc4c3CCN(c3ncccc3Cl)C4)ccc21 [Example 67, 6-(7-(3-Chloropyridin-2-yl)-5,6,7,8-tetrahydropyrido[3,4-d]pyrimidin-4-ylamino)-3,3-dimethylindolin-2-one]",
501 to 1000 nM,"CC(=O)N1CC(C)(C)c2ccc(Nc3ncnc4c3CCN(c3ncccc3Cl)C4)cc21 [Example 68, 1-(6-(7-(3-Chloropyridin-2-yl)-5,6,7,8-tetrahydropyrido[3,4-d]pyrimidin-4-ylamino)-3,3-dimethylindolin-1-yl)ethanone]",+++ (compound exhibited 51-75% inhibition of calcium ion influx induced by proton stimulation)
101 to 500 nM,"CC1(C)CNc2cc(Nc3ncnc4c3CCN(c3ncccc3Cl)C4)ccc21 [Example 69, 7-(3-Chloropyridin-2-yl)-5,6,7,8-tetrahydro-N-(3,3-dimethylindolin-6-yl)pyrido[3,4-d]pyrimidin-4-amine]",++++ (compound exhibited 76% or greater inhibition of calcium ion influx induced by proton stimulation)
